ChEMBL document CHEMBL2331227, “Khayseneganins A-H, limonoids from Khaya senegalensis” (2013)
Values after ≈ are worked out from the molar mass of the structure shown.

What was measured:
Format in all cases: functional
Staphylococcus aureus [1] = experiment: Antimicrobial activity against methicillin-resistant Staphylococcus aureus isolate 98 by two-fold dilution method
Staphylococcus aureus [2] = experiment: Antimicrobial activity against methicillin-resistant Staphylococcus aureus isolate 92 by two-fold dilution method
Pseudomonas aeruginosa = experiment: Antimicrobial activity against Pseudomonas aeruginosa ATCC 27853 by two-fold dilution method
Staphylococcus aureus [3] = experiment: Antimicrobial activity against Staphylococcus aureus ATCC 25923 by two-fold dilution method

CC(=O)O[C@@H]1C[C@H](O)[C@]2(C)[C@H]3CC[C@@]4(C)[C@@H](c5ccoc5)OC(=O)[C@H]5O[C@]54[C@]3(C)[C@H](OC(C)=O)C[C@H]2C1(C)C
MIC (Staphylococcus aureus [1]): 12.5 µg/mL (≈ 23 µM)
MIC (Staphylococcus aureus [2]): 25 µg/mL (≈ 45.9 µM)
MIC (Pseudomonas aeruginosa): 25 µg/mL (≈ 45.9 µM)
MIC (Staphylococcus aureus [3]): 25 µg/mL (≈ 45.9 µM)

CC(=O)O[C@H]1C[C@@H](OC(C)=O)C(C)(C)[C@@H]2CC(=O)[C@]3(C)[C@H](CC[C@@]4(C)[C@@H](c5ccoc5)OC(=O)[C@H]5O[C@]543)[C@@]12C
MIC (Staphylococcus aureus [1]): 25 µg/mL (≈ 46.1 µM)
MIC (Staphylococcus aureus [2]): 50 µg/mL (≈ 92.1 µM)
MIC (Pseudomonas aeruginosa): 25 µg/mL (≈ 46.1 µM)
MIC (Staphylococcus aureus [3]): 50 µg/mL (≈ 92.1 µM)

COC(=O)C[C@H]1C(C)(C)[C@H](OC(C)=O)[C@]2(O)C=C3[C@H]([C@H](OC(C)=O)C[C@]4(C)[C@H]3CC(=O)O[C@H]4c3ccoc3)[C@@]1(C)C2=O
MIC (Staphylococcus aureus [1]): 25 µg/mL (≈ 42.6 µM)
MIC (Staphylococcus aureus [2]): 25 µg/mL (≈ 42.6 µM)
MIC (Pseudomonas aeruginosa): 25 µg/mL (≈ 42.6 µM)
MIC (Staphylococcus aureus [3]): 25 µg/mL (≈ 42.6 µM)

COC(=O)C[C@H]1C(C)(C)[C@H](OC(C)=O)[C@@H]2C=C3[C@@H]4CC(=O)O[C@@H](c5ccoc5)[C@]4(C)CC[C@@H]3[C@@]1(C)C2=O
MIC (Staphylococcus aureus [1]): 12.5 µg/mL (≈ 24.4 µM)
MIC (Staphylococcus aureus [2]): 12.5 µg/mL (≈ 24.4 µM)
MIC (Pseudomonas aeruginosa): 12.5 µg/mL (≈ 24.4 µM)
MIC (Staphylococcus aureus [3]): 25 µg/mL (≈ 48.8 µM)

CC(=O)O[C@H]1C[C@@H](O)C(C)(C)[C@@H]2C[C@@H](O)[C@]3(C)[C@H](CC[C@@]4(C)[C@@H](c5ccoc5)OC(=O)[C@H]5O[C@@]534)[C@@]12C
MIC (Staphylococcus aureus [1]): > 50 µg/mL
MIC (Staphylococcus aureus [2]): > 50 µg/mL
MIC (Pseudomonas aeruginosa): > 50 µg/mL
MIC (Staphylococcus aureus [3]): > 50 µg/mL

COC(=O)C[C@H]1[C@@]2(C)C[C@]3(O)O[C@@]4(CC(=O)[C@H]2O)[C@H]2CC(=O)O[C@@H](c5ccoc5)[C@]2(C)CC[C@@H]4[C@]13C
MIC (Staphylococcus aureus [1]): > 50 µg/mL
MIC (Staphylococcus aureus [2]): > 50 µg/mL
MIC (Pseudomonas aeruginosa): > 50 µg/mL
MIC (Staphylococcus aureus [3]): > 50 µg/mL

C=C1[C@@H]2CC[C@@]3(C)[C@H](c4ccoc4)OC(=O)C[C@]13O[C@H]1CC(=O)OC(C)(C)[C@H]([C@@H](O)C(=O)OC)[C@]12C (relative stereo)
MIC (Staphylococcus aureus [1]): 50 µg/mL (≈ 99.5 µM)
MIC (Staphylococcus aureus [2]): 25 µg/mL (≈ 49.7 µM)
MIC (Pseudomonas aeruginosa): 25 µg/mL (≈ 49.7 µM)
MIC (Staphylococcus aureus [3]): 50 µg/mL (≈ 99.5 µM)

COC(=O)[C@H](O)[C@H]1[C@]2(C)C[C@]3(OC(C)=O)[C@@H]4[C@@](OC)(O[C@]56CC(=O)O[C@@H](c7ccoc7)[C@]5(C)CC[C@H]([C@]13C)[C@@]46O)[C@H]2O (relative stereo)
MIC (Staphylococcus aureus [1]): > 50 µg/mL
MIC (Staphylococcus aureus [2]): > 50 µg/mL

COC(=O)[C@H](O)[C@@H]1[C@@]2(C)[C@H]3CC[C@]4(C)C(=CC(=O)O[C@H]4c4ccoc4)[C@]3(O)[C@H]3[C@@H](O)C(=O)[C@@]1(C)C[C@]32OC(C)=O (relative stereo)
MIC (Staphylococcus aureus [1]): > 50 µg/mL
MIC (Staphylococcus aureus [2]): > 50 µg/mL
MIC (Pseudomonas aeruginosa): > 50 µg/mL
MIC (Staphylococcus aureus [3]): > 50 µg/mL

CC(=O)O[C@H]1C[C@@H](O)C(C)(C)[C@@H]2C[C@@H](OC(C)=O)[C@]3(C)[C@H](CC[C@@]4(C)[C@@H](c5ccoc5)OC(=O)[C@H]5O[C@@]534)[C@@]12C [3-DEACETYLKHIVORIN]
MIC (Staphylococcus aureus [1]): 12.5 µg/mL (≈ 23 µM)
MIC (Staphylococcus aureus [2]): 12.5 µg/mL (≈ 23 µM)
MIC (Pseudomonas aeruginosa): 12.5 µg/mL (≈ 23 µM)
MIC (Staphylococcus aureus [3]): 25 µg/mL (≈ 45.9 µM)

COC(=O)[C@H](O)[C@H]1C(C)(C)C(=O)[C@@H]2C[C@]3(O)[C@@H]4CC(=O)O[C@@H](c5ccoc5)[C@]4(C)CC[C@@H]3[C@@]1(C)C2=O [KHAYANONE]
MIC (Staphylococcus aureus [1]): 25 µg/mL (≈ 49.7 µM)
MIC (Staphylococcus aureus [2]): 25 µg/mL (≈ 49.7 µM)
MIC (Pseudomonas aeruginosa): > 50 µg/mL
MIC (Staphylococcus aureus [3]): 25 µg/mL (≈ 49.7 µM)

C=C1[C@H]2CC[C@]3(C)[C@H](c4ccoc4)OC(=O)C[C@@]13O[C@H]1CC(=O)OC(C)(C)[C@@H](CC(=O)OC)[C@@]12C [METHYL IVORENSATE]
MIC (Staphylococcus aureus [1]): > 50 µg/mL
MIC (Staphylococcus aureus [2]): > 50 µg/mL
MIC (Pseudomonas aeruginosa): > 50 µg/mL
MIC (Staphylococcus aureus [3]): > 50 µg/mL

CC1(C)C(=O)[C@@H]2C[C@@]34O[C@]2(O)[C@]2(COC(=O)C[C@@H]12)[C@H]3CC[C@]1(C)[C@H]4CC(=O)O[C@H]1c1ccoc1 [SENEGANOLIDE]
MIC (Staphylococcus aureus [1]): > 50 µg/mL
MIC (Staphylococcus aureus [2]): > 50 µg/mL
MIC (Pseudomonas aeruginosa): > 50 µg/mL
MIC (Staphylococcus aureus [3]): > 50 µg/mL

COC(=O)[C@H](O)[C@H]1C(C)(C)[C@H](OC(C)=O)[C@@H]2CC3=C4CC(=O)O[C@@H](c5ccoc5)[C@]4(C)CC[C@@H]3[C@@]1(C)C2=O [SWIETENOLIDE-3-ACETATE]
MIC (Staphylococcus aureus [1]): 25 µg/mL (≈ 47.3 µM)
MIC (Staphylococcus aureus [2]): 25 µg/mL (≈ 47.3 µM)
MIC (Pseudomonas aeruginosa): 25 µg/mL (≈ 47.3 µM)
MIC (Staphylococcus aureus [3]): 25 µg/mL (≈ 47.3 µM)

COC(=O)C[C@H]1C(C)(C)[C@H](OC(C)=O)[C@@H]2C=C3[C@H]([C@H](OC(C)=O)C[C@]4(C)[C@H]3CC(=O)O[C@H]4c3ccoc3)[C@@]1(C)C2=O [SWIETMANIN B]
MIC (Staphylococcus aureus [1]): 12.5 µg/mL (≈ 21.9 µM)
MIC (Staphylococcus aureus [2]): 50 µg/mL (≈ 87.6 µM)
MIC (Pseudomonas aeruginosa): 12.5 µg/mL (≈ 21.9 µM)
MIC (Staphylococcus aureus [3]): 25 µg/mL (≈ 43.8 µM)

COC(=O)C[C@H]1C(C)(C)[C@H](O)[C@@H]2C=C3[C@H]([C@H](OC(C)=O)C[C@]4(C)[C@H]3CC(=O)O[C@H]4c3ccoc3)[C@@]1(C)C2=O [Swietmanin C]
MIC (Staphylococcus aureus [1]): > 50 µg/mL
MIC (Staphylococcus aureus [2]): > 50 µg/mL
MIC (Pseudomonas aeruginosa): > 50 µg/mL
MIC (Staphylococcus aureus [3]): > 50 µg/mL

CN[C@H](CC(C)C)C(=O)N[C@H]1C(=O)N[C@@H](CC(N)=O)C(=O)N[C@H]2C(=O)N[C@H]3C(=O)N[C@H](C(=O)N[C@H](C(=O)O)c4cc(O)cc(O)c4-c4cc3ccc4O)[C@H](O)c3ccc(c(Cl)c3)Oc3cc2cc(c3O[C@@H]2O[C@H](CO)[C@@H](O)[C@H](O)[C@H]2O[C@H]2C[C@](C)(N)[C@H](O)[C@H](C)O2)Oc2ccc(cc2Cl)[C@H]1O.Cl [VANCOMYCIN HYDROCHLORIDE]
MIC (Staphylococcus aureus [1]): 0.78 µg/mL
MIC (Staphylococcus aureus [2]): 0.78 µg/mL
MIC (Pseudomonas aeruginosa): 25 µg/mL
MIC (Staphylococcus aureus [3]): 0.78 µg/mL

COC(=O)[C@@H](OC(C)=O)[C@H]1C(C)(C)C(=O)[C@@H]2C=C3[C@@H]4CC(=O)O[C@@H](c5ccoc5)[C@]4(C)CC[C@@H]3[C@@]1(C)C2=O [khayalenoid E]
MIC (Staphylococcus aureus [1]): 25 µg/mL (≈ 47.5 µM)
MIC (Staphylococcus aureus [2]): 25 µg/mL (≈ 47.5 µM)
MIC (Pseudomonas aeruginosa): 25 µg/mL (≈ 47.5 µM)
MIC (Staphylococcus aureus [3]): 25 µg/mL (≈ 47.5 µM)
